Test results as given in ChEMBL document CHEMBL1201862, “PubChem BioAssay data set” (2004).
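These data come from cells grown in 96-well plates and exposed to compound for 48 hours at five concentrations. GI50 = concentration required for 50% inhibition of growth.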 Active and inactive are the calls of the source. Rule as the data show it: active = GI50 up to about 1.1 µM and inactive = higher.

Experiments:
Experiment in all cases: DTP human tumour cell line panel, 48 h
A498 = system: A498
ACHN = system: ACHN
EKVX = system: EKVX
HCT-15 = system: HCT-15
IGROV-1 = system: IGROV-1
M14 = system: M14
MDA-MB-435 = system: MDA-MB-435
MDA-N = system: MDA-N
NCI-H226 = system: NCI-H226
NCI-H460 = system: NCI-H460
OVCAR-4 = system: OVCAR-4
SK-MEL-28 = system: SK-MEL-28
SK-MEL-5 = system: SK-MEL-5
SK-OV-3 = system: SK-OV-3
SNB-19 = system: SNB-19
SNB-75 = system: SNB-75
TK-10 = system: TK-10
UO-31 = system: UO-31
NCI-H23 = system: NCI-H23

Compound | GI50 (A498) | GI50 (ACHN) | GI50 (EKVX) | GI50 (HCT-15) | GI50 (IGROV-1) | GI50 (M14) | GI50 (MDA-MB-435) | GI50 (MDA-N) | GI50 (NCI-H226) | GI50 (NCI-H460) | GI50 (OVCAR-4) | GI50 (SK-MEL-28) | GI50 (SK-MEL-5) | GI50 (SK-OV-3) | GI50 (SNB-19) | GI50 (SNB-75) | GI50 (TK-10) | GI50 (UO-31) | GI50 (NCI-H23)
COC(=O)[C@H](Cc1c[nH]c2ccccc12)NC(=O)c1ccccc1I | 18.5 µM (inactive) | 17.1 µM (inactive) | > 100 µM (inactive) | > 100 µM | 31.8 µM (inactive) | 15.7 µM (inactive) | 25.4 µM (inactive) | 8.41 µM (inactive) | 26.8 µM (inactive) | 24.8 µM (inactive) | 30 µM (inactive) | 89.3 µM (inactive) | 16.1 µM (inactive) | 33.6 µM (inactive) | > 100 µM (inactive) | 11.8 µM (inactive) | 24.4 µM (inactive) | 19.3 µM (inactive) | –
CCCCn1c2c(n(CCCC)c1=S)-c1c(n(CCCC)c(=S)n1CCCC)SSSS2 | > 47.2 µM (inactive) | 0.966 µM (active) | 1.31 µM (inactive) | 0.557 µM | 0.7 µM (active) | 3.92 µM (inactive) | 2.41 µM (inactive) | 2.84 µM (inactive) | 16.6 µM (inactive) | 30.8 µM (inactive) | 0.367 µM (active) | 9.02 µM (inactive) | 2.09 µM (inactive) | 46.1 µM (inactive) | 3.86 µM (inactive) | 4.48 µM (inactive) | 1.22 µM (inactive) | 0.881 µM (active) | 3.31 µM (inactive)
COc1ccc(C=O)cc1Oc1ccc(C[C@H]2c3c(cc(OC)c4c3Oc3cc5c(cc3O4)CCN(C)C5=O)CCN2C)cc1 | 20.1 µM (inactive) | 8.43 µM (inactive) | 9.4 µM (inactive) | 10.1 µM | 7.16 µM (inactive) | 8.65 µM (inactive) | 9.73 µM (inactive) | 8.67 µM (inactive) | 8.59 µM (inactive) | 9.04 µM (inactive) | 7.93 µM (inactive) | 10.6 µM (inactive) | 7.33 µM (inactive) | 6.73 µM (inactive) | 12 µM (inactive) | 7.29 µM (inactive) | 11.2 µM (inactive) | 7.93 µM (inactive) | 7.14 µM (inactive)
COc1cc2c(cc1OC)C1c3ccccc3CCN1CC2 (stereo not drawn) | > 100 µM (inactive) | > 100 µM (inactive) | > 100 µM (inactive) | > 100 µM | 53.3 µM (inactive) | 45 µM (inactive) | 37.2 µM (inactive) | 41.1 µM (inactive) | 41.2 µM (inactive) | 94.4 µM (inactive) | > 100 µM (inactive) | 79.3 µM (inactive) | 81.1 µM (inactive) | > 100 µM (inactive) | > 100 µM (inactive) | 44.6 µM (inactive) | > 100 µM (inactive) | – | 63.5 µM (inactive)
Cc1ccc(S(=O)(=O)OC2C(C3COC(C)(C)O3)OC3OC(C)(C)OC32)cc1 (stereo not drawn) | > 100 µM (inactive) | > 100 µM (inactive) | > 100 µM (inactive) | > 100 µM | > 100 µM (inactive) | > 100 µM (inactive) | > 100 µM (inactive) | > 100 µM (inactive) | > 100 µM (inactive) | > 100 µM (inactive) | > 100 µM (inactive) | > 100 µM (inactive) | > 100 µM (inactive) | – | > 100 µM (inactive) | > 100 µM (inactive) | > 100 µM (inactive) | > 100 µM (inactive) | > 100 µM (inactive)
N#CCN1CCCN(CC#N)CCN(CC#N)CCCN(CC#N)CC1 | > 100 µM (inactive) | > 100 µM (inactive) | – | – | > 100 µM (inactive) | > 100 µM (inactive) | > 100 µM (inactive) | > 100 µM (inactive) | > 100 µM (inactive) | > 100 µM (inactive) | > 100 µM (inactive) | > 100 µM (inactive) | > 100 µM (inactive) | > 100 µM (inactive) | > 100 µM (inactive) | > 100 µM (inactive) | > 100 µM (inactive) | > 100 µM (inactive) | > 100 µM (inactive)
C(=C\c1cccc(/C=C/c2ccccn2)n1)/c1ccccn1 | 0.971 µM (active) | 35.2 µM (inactive) | > 100 µM (inactive) | > 100 µM | 61.8 µM (inactive) | 43.3 µM (inactive) | 83.8 µM (inactive) | 68.2 µM (inactive) | > 100 µM (inactive) | > 100 µM (inactive) | 60.4 µM (inactive) | 81.3 µM (inactive) | 48.4 µM (inactive) | > 100 µM (inactive) | > 100 µM (inactive) | 37.4 µM (inactive) | > 100 µM (inactive) | 26.2 µM (inactive) | 66.5 µM (inactive)
